From patent publication US10150774B2, “Compounds and methods” (INTRA-CELLULAR THERAPIES, INC., priority 2014, dated 2018) come the findings set out here.

This test concerns PDE1. Briefly: Measurement of PDEIB inhibition in vitro using IMAP phosphodiesterase assay kit. Format: biochemical, bovine or human. The source says: Example 10: Measurement of PDEIB Inhibition in Vitro Using IMAP Phosphodiesterase Assay Kit
Phosphodiesterase I B (PDEIB) is a calcium/calmodulin dependent phosphodiesterase enzyme that converts cyclic guanosine monophosphate (cGMP) to 5′-guanosine monophosphate (5′-GMP). PDEIB can also convert a modified cGMP substrate, such as the fluorescent molecule cGMP-fluorescein, to the corresponding GMP-fluorescein. The generation of GMP-fluorescein from cGMP-fluorescein can be quantitated, using, for example, the IMAP (Molecular Devices, Sunnyvale, Calif.) immobilized-metal affinity particle reagent.
Briefly, the IMAP reagent binds with high affinity to the free 5′-phosphate that is found in GMP-fluorescein and not in cGMP-fluorescein. The resulting GMP-fluorescein-IMAP complex is large relative to cGMP-5 fluorescein. Small fluorophores that are bound up in a large, slowly tumbling, complex can be distinguished from unbound fluorophores, because the photons emitted as they fluoresce retain the same polarity as the photons used to excite the fluorescence.
In the phosphodiesterase assay, cGMP-fluorescein, which cannot be bound to IMAP, and therefore retains little fluorescence polarization, is converted to GMPfluorescein, which, when bound to IMAP, yields a large increase in fluorescence polarization (mp). Inhibition of phosphodiesterase, therefore, is detected as a decrease in mp.
Materials: All chemicals are available from Sigma-Aldrich (St. Louis, Mo.) except for IMAP reagents (reaction buffer, binding buffer, FL-GMP and IMAP beads), which are available from Molecular Devices (Sunnyvale, Calif.).
Assay: The following phosphodiesterase enzymes may be used: 3′,5′-cyclic-nucleotide specific bovine brain phosphodiesterase (Sigma, St. Louis, Mo.) (predominantly PDEIB) and recombinant full length human PDE1 A and PDE1B (r-hPDE1 A and r-hPDE1B respectively) which may be produced e.g., in HEK or SF9 cells by one skilled in the art. The PDE1 enzyme is reconstituted with 50% glycerol to 2.5 U/mL. One unit of enzyme will hydrolyze 1.0 μmol of 3′,5′-cAMP to 5′-AMP per min at pH 7.5 at 30° C. […]
The FL-GMP conversion reaction is initiated by combining 4 parts enzyme and inhibitor mix with 1 part substrate solution ([…]) in a 384-well microtiter plate. […] The plate is incubated at room temperature for 1 hour to allow IMAP binding to proceed to completion, and then placed in an Envision multimode microplate reader (PerkinElmer, Shelton, Conn.) to measure the fluorescence polarization (mp).
A decrease in GMP concentration, measured as decreased mp, is indicative of inhibition of PDE activity.
As to `CCc1c2c(nn1Cc1ccc(-c3ccc(F)cn3)cc1)N1CC(C)(C)N=C1N(C)C2=O` [Example 5, 7,8-Dihydro-2-(4-(5-fluoropyridin2-yl)benzyl)-3-ethyl-5,7,7-trimethyl-[2H]-imidazo-[1,2-a]pyrazolo[4,3-e]pyrimidin-4(5H)-one], the “selectivity for PDE1” value is “good selectivity”. As for `CN1C(=O)c2c(nn(Cc3ccc(Cl)cc3)c2Nc2ccc(F)cc2)N2CC(C)(C)N=C12` [Example 9, 7,8-Dihydro-2-(4-chlorobenzyl)-3-(4-fluorophenylamino)-5,7,7-trimethyl-[2H]-imidazo-[1,2-a]pyrazolo[4,3-e]pyrimidin-4(5H)-one], the “selectivity for PDE1” value is on record as “good selectivity”. For `CN1C(=O)c2c(nn(Cc3ccc(-c4ccccn4)cc3)c2Nc2ccc(F)cc2)N2CC(C)(C)N=C12` [Example 1, 7,8-Dihydro-2-(4-(pyridine-2-yl)benzyl)-3-(4-fluorophenylamino)-5,7,7-trimethyl-[2H]-imidazo-[1,2-a]pyrazolo[4,3-e]pyrimidin-4(5H)-one], the “selectivity for PDE1” value is reported as “good selectivity”.

Regarding `CCCc1c2c(nn1Cc1ccc(-c3ccc(F)cn3)cc1)N1CC(C)(C)N=C1N(C)C2=O` [Example 7, 7,8-Dihydro-2-(4-(5-fluoropyridin2-yl)benzyl)-3-propyl-5,7,7-trimethyl-[2H]-imidazo-[1,2-a]pyrazolo[4,3-e]pyrimidin-4(5H)-one], the “selectivity for PDE1” value is reported as “good selectivity”.
